{
  "source": "paper PMC8475189",
  "about": "“The CopA2-Type P1B-Type ATPase CcoI Serves as Central Hub for cbb3-Type Cytochrome Oxidase Biogenesis” (Frontiers in Microbiology, 2021)",
  "target": "T1, CcoI (Rhodobacter capsulatus, UniProt D5ARQ0)",
  "T1 construct": "full-length with C-terminal Myc-His tag (pBAD-ccoI-Myc/HisA), expressed in E. coli C43(DE3), purified in DDM, monomeric SEC peak; strain MT1131 is printed as wild type and as genomic template of the ccoI-senC fusion",
  "T1 sequence (D5ARQ0 1-742)": "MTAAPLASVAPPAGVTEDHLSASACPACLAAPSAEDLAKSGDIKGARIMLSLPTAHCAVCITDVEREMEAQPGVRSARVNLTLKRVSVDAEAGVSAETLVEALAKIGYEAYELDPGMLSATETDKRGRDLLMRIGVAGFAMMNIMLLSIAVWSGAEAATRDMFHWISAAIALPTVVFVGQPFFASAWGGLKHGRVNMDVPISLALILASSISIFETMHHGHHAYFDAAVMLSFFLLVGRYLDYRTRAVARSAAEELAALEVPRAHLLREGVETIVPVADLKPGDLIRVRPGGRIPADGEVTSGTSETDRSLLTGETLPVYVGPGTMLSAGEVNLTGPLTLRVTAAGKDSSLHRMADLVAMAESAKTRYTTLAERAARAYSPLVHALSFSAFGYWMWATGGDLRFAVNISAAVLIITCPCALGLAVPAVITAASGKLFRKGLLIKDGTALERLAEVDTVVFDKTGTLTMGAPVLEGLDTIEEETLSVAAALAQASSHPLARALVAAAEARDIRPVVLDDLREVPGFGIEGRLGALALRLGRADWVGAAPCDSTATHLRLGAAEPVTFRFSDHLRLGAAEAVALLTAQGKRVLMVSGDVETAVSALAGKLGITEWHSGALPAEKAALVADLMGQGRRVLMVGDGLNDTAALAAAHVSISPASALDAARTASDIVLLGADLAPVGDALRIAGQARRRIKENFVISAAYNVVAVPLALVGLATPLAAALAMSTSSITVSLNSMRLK",
  "assay": "[…] phosphate release (charcoal, scintillation)",
  "assay_type": "biochemical",
  "settings": "labelled compound; 10-100 µM ATP, 10 mM MgCl2, 50 mM Tris pH 7.5, 300 mM NaCl, 0.03% DDM, 35 °C; no added Cu",
  "data": [
    {"smiles": "Nc1ncnc2c1ncn2[C@@H]1O[C@H](COP(=O)(O)OP(=O)(O)OP(=O)(O)O)[C@@H](O)[C@H]1O", "note": "[ATP]", "values": [
      {"measurement": "33P phosphate release (charcoal, scintillation)", "value": "ATPase activity of detergent-solubilized, purified CcoI"}
    ]}
  ]
}
